Experimental data published in patent US11395490B2, “Herbicidal composition” (SYNGENTA CROP PROTECTION, LLC, priority 2005, dated 2022).

Legend:
Format in all cases: in vivo
Details in all cases: 21 days after treatment
Sorghum vulgare (SORVU) = assay: Post-emergence test, Sorghum vulgare
Source text: (§1) The herbicidal action to be expected, We, for a given combination of two herbicides can be calculated as follows (see COLBY, S. R. “Calculating synergistic and antagonistic response of herbicide combinations”. Weeds 15, pages 20-22; 1967): We=X+[Y·(100−X)/100] wherein: X=% herbicidal action in the case of treatment with active ingredient (A) using an application rate of p kg per hectare, in comparison with untreated control (=0%). Y=% herbicidal action in the case of treatment with active ingredient (B) using an application rate of q kg per hectare, in comparison with untreated control. We=expected herbicidal action (% herbicidal action in comparison with untreated control) after treatment with active ingredient (A) and active ingredient (B) at a rate of application of p+q kg of active ingredient per hectare. If the action actually observed is greater than the expected value We, there is a synergistic effect. Trial Description, Pre-Emergence Test: Monocotyledonous and dicotyledonous test plants are sown in standard soil in plastics pots. The plants tested were: Maize (ZEAMX), Ipomea purpurea (PHBPU), Euphorbia heterophylla (EPHHL), Panicum millenacearum (PANMI). Immediately after sowing, the test compounds in aqueous suspension are applied by spraying (200 litres of water/ha). (A) was formulated as a SC50, and (B1), (B2) and (B3) were formulated as WP25; 1% adjuvant crop oil concentrate (Agridex) (v/v) was added to all treatments. The compounds were applied alone and in combination as tank mixtures. The rates of application depend on the optimum concentrations determined under field conditions and greenhouse conditions. The test plants are then cultivated in a greenhouse under optimum conditions. Evaluation of the tests is made after 21 days (% action, 100%=plants have died, 0%=no phytotoxic action).
(§2) Trial Description Post-Emergence Test: The test plants are raised in plastics pots under greenhouse conditions as far as the 2- to 3-leaf stage. A standard soil is used as the cultivation substrate. The plants tested were: Maize (ZEAMX), Ipomea purpurea (PHBPU), Sorghum vulgare (SORVU), Euphorbia heterophylla (EPHHL), Panicum millenacearum (PANMI). At the 2- to 3-leaf stage, the herbicides are applied individually and as mixtures to the test plants. The test compounds are applied in the form of an aqueous suspension in 200 litres of water/ha. (A) was formulated as a SC50, and (B1), (B2) and (B3) were formulated as WP25; 1% adjuvant crop oil concentrate (Agridex) (v/v) was added to all treatments. The compounds were applied alone and in combination as tank mixtures. The rates of application depend on the optimum concentrations determined under field conditions and greenhouse conditions. Evaluation of the tests is made after 21 days (% action, 100%=plants have died, 0%=no phytotoxic action).

[1] = tested on: Panicum millenacearum (PANMI); assay: Post-emergence test, Panicum millenacearum
Source text: as §1, §2

[2] = tested on: Panicum millenacearum (PANMI); assay: Pre-emergence test, Panicum millenacearum
Source text: as §1

[3] = tested on: Euphorbia heterophylla (EPHHL); assay: Pre-emergence test, Euphorbia heterophylla
Source text: as §1

Maize (ZEAMX) [4] = assay: Pre-emergence test, Maize
Source text: as §1

Ipomea purpurea (PHBPU) [5] = assay: Post-emergence test, Ipomea purpurea
Source text: as §1, §2

Maize (ZEAMX) [6] = assay: Post-emergence test, Maize
Source text: as §1, §2

Ipomea purpurea (PHBPU) [7] = assay: Pre-emergence test, Ipomea purpurea
Source text: as §1

[8] = tested on: Euphorbia heterophylla (EPHHL); assay: Post-emergence test, Euphorbia heterophylla
Source text: as §1, §2

COCCOCc1nc(C(F)(F)F)ccc1C(=O)C1C(=O)C2CCC(C2)C1=O (stereo not drawn) [(B1), 4-hydroxy-3-[[2-[(2-methoxyethoxy)methyl]-6-(trifluoromethyl)-3-pyridinyl]carbonyl]-bicyclo[3.2.1]oct-3-en-2-one]
Observed plant damage SORVU (Sorghum vulgare (SORVU); rate 18.75 g/ha): 0% | Observed plant damage SORVU (Sorghum vulgare (SORVU); rate 37.5 g/ha): 0% | Observed plant damage SORVU (Sorghum vulgare (SORVU); rate 75 g/ha): 0% | Observed plant damage SORVU (Sorghum vulgare (SORVU); rate 150 g/ha): 10% | Observed plant damage SORVU (Sorghum vulgare (SORVU); rate 300 g/ha): 35% | Observed plant damage PANMI ([1]; rate 18.75 g/ha): 60% | Observed plant damage PANMI ([1]; rate 37.5 g/ha): 70% | Observed plant damage PANMI ([1]; rate 75 g/ha): 75% | Observed plant damage PANMI ([1]; rate 150 g/ha): 70% | Observed plant damage PANMI ([1]; rate 300 g/ha): 90% | Observed plant damage PANMI ([2]; rate 18.75 g/ha): 15% | Observed plant damage PANMI ([2]; rate 37.5 g/ha): 65% | Observed plant damage PANMI ([2]; rate 75 g/ha): 80% | Observed plant damage PANMI ([2]; rate 150 g/ha): 100% | Observed plant damage PANMI ([2]; rate 300 g/ha): 100% | Observed plant damage EPHHL ([3]; rate 18.75 g/ha): 0% | Observed plant damage EPHHL ([3]; rate 37.5 g/ha): 0% | Observed plant damage EPHHL ([3]; rate 75 g/ha): 75% | Observed plant damage EPHHL ([3]; rate 150 g/ha): 75% | Observed plant damage EPHHL ([3]; rate 300 g/ha): 100% | Observed plant damage ZEAMX (Maize (ZEAMX) [4]; rate 18.75 g/ha): 0% | Observed plant damage ZEAMX (Maize (ZEAMX) [4]; rate 37.5 g/ha): 0% | Observed plant damage ZEAMX (Maize (ZEAMX) [4]; rate 75 g/ha): 0% | Observed plant damage ZEAMX (Maize (ZEAMX) [4]; rate 150 g/ha): 0% | Observed plant damage ZEAMX (Maize (ZEAMX) [4]; rate 300 g/ha): 0% | Observed plant damage PHBPU (Ipomea purpurea (PHBPU) [5]; rate 18.75 g/ha): 30% | Observed plant damage PHBPU (Ipomea purpurea (PHBPU) [5]; rate 37.5 g/ha): 50% | Observed plant damage PHBPU (Ipomea purpurea (PHBPU) [5]; rate 75 g/ha): 55% | Observed plant damage PHBPU (Ipomea purpurea (PHBPU) [5]; rate 150 g/ha): 70% | Observed plant damage PHBPU (Ipomea purpurea (PHBPU) [5]; rate 300 g/ha): 70% | Observed plant damage ZEAMX (Maize (ZEAMX) [6]; rate 18.75 g/ha): 0% | Observed plant damage ZEAMX (Maize (ZEAMX) [6]; rate 37.5 g/ha): 0% | Observed plant damage ZEAMX (Maize (ZEAMX) [6]; rate 75 g/ha): 0% | Observed plant damage ZEAMX (Maize (ZEAMX) [6]; rate 150 g/ha): 0% | Observed plant damage ZEAMX (Maize (ZEAMX) [6]; rate 300 g/ha): 0% | Observed plant damage PHBPU (Ipomea purpurea (PHBPU) [7]; rate 18.75 g/ha): 0% | Observed plant damage PHBPU (Ipomea purpurea (PHBPU) [7]; rate 37.5 g/ha): 0% | Observed plant damage PHBPU (Ipomea purpurea (PHBPU) [7]; rate 75 g/ha): 0% | Observed plant damage PHBPU (Ipomea purpurea (PHBPU) [7]; rate 150 g/ha): 0% | Observed plant damage PHBPU (Ipomea purpurea (PHBPU) [7]; rate 300 g/ha): 85% | Observed plant damage EPHHL ([8]; rate 18.75 g/ha): 65% | Observed plant damage EPHHL ([8]; rate 37.5 g/ha): 80% | Observed plant damage EPHHL ([8]; rate 75 g/ha): 90% | Observed plant damage EPHHL ([8]; rate 150 g/ha): 90% | Observed plant damage EPHHL ([8]; rate 300 g/ha): 98%

Cn1nc(C(F)(F)F)c(CS(=O)(=O)C2=NOC(C)(C)C2)c1OC(F)F [(A), 3-[[[5-(difluoromethoxy)-1-methyl-3-(trifluoromethyl)-1H-pyrazol-4-yl]methyl]-sulfonyl]-4,5-dihydro-5,5-dimethyl-isoxazole]
Observed plant damage SORVU (Sorghum vulgare (SORVU); rate 12.5 g/ha): 0% | Observed plant damage SORVU (Sorghum vulgare (SORVU); rate 25 g/ha): 0% | Observed plant damage SORVU (Sorghum vulgare (SORVU); rate 50 g/ha): 0% | Observed plant damage SORVU (Sorghum vulgare (SORVU); rate 100 g/ha): 0% | Observed plant damage SORVU (Sorghum vulgare (SORVU); rate 200 g/ha): 0% | Observed plant damage PANMI ([1]; rate 12.5 g/ha): 0% | Observed plant damage PANMI ([1]; rate 25 g/ha): 35% | Observed plant damage PANMI ([1]; rate 50 g/ha): 65% | Observed plant damage PANMI ([1]; rate 100 g/ha): 65% | Observed plant damage PANMI ([1]; rate 200 g/ha): 75% | Observed plant damage PANMI ([2]; rate 12.5 g/ha): 0% | Observed plant damage PANMI ([2]; rate 25 g/ha): 0% | Observed plant damage PANMI ([2]; rate 50 g/ha): 70% | Observed plant damage PANMI ([2]; rate 100 g/ha): 100% | Observed plant damage PANMI ([2]; rate 200 g/ha): 100% | Observed plant damage EPHHL ([3]; rate 12.5 g/ha): 0% | Observed plant damage EPHHL ([3]; rate 25 g/ha): 0% | Observed plant damage EPHHL ([3]; rate 50 g/ha): 15% | Observed plant damage EPHHL ([3]; rate 100 g/ha): 40% | Observed plant damage EPHHL ([3]; rate 200 g/ha): 75% | Observed plant damage ZEAMX (Maize (ZEAMX) [4]; rate 12.5 g/ha): 0% | Observed plant damage ZEAMX (Maize (ZEAMX) [4]; rate 25 g/ha): 0% | Observed plant damage ZEAMX (Maize (ZEAMX) [4]; rate 50 g/ha): 0% | Observed plant damage ZEAMX (Maize (ZEAMX) [4]; rate 100 g/ha): 0% | Observed plant damage ZEAMX (Maize (ZEAMX) [4]; rate 200 g/ha): 0% | Observed plant damage PHBPU (Ipomea purpurea (PHBPU) [5]; rate 12.5 g/ha): 0% | Observed plant damage PHBPU (Ipomea purpurea (PHBPU) [5]; rate 25 g/ha): 20% | Observed plant damage PHBPU (Ipomea purpurea (PHBPU) [5]; rate 50 g/ha): 20% | Observed plant damage PHBPU (Ipomea purpurea (PHBPU) [5]; rate 100 g/ha): 75% | Observed plant damage PHBPU (Ipomea purpurea (PHBPU) [5]; rate 200 g/ha): 85% | Observed plant damage ZEAMX (Maize (ZEAMX) [6]; rate 12.5 g/ha): 0% | Observed plant damage ZEAMX (Maize (ZEAMX) [6]; rate 25 g/ha): 0% | Observed plant damage ZEAMX (Maize (ZEAMX) [6]; rate 50 g/ha): 0% | Observed plant damage ZEAMX (Maize (ZEAMX) [6]; rate 100 g/ha): 0% | Observed plant damage ZEAMX (Maize (ZEAMX) [6]; rate 200 g/ha): 0% | Observed plant damage PHBPU (Ipomea purpurea (PHBPU) [7]; rate 12.5 g/ha): 0% | Observed plant damage PHBPU (Ipomea purpurea (PHBPU) [7]; rate 25 g/ha): 0% | Observed plant damage PHBPU (Ipomea purpurea (PHBPU) [7]; rate 50 g/ha): 0% | Observed plant damage PHBPU (Ipomea purpurea (PHBPU) [7]; rate 100 g/ha): 75% | Observed plant damage PHBPU (Ipomea purpurea (PHBPU) [7]; rate 200 g/ha): 95% | Observed plant damage EPHHL ([8]; rate 12.5 g/ha): 0% | Observed plant damage EPHHL ([8]; rate 25 g/ha): 0% | Observed plant damage EPHHL ([8]; rate 50 g/ha): 15% | Observed plant damage EPHHL ([8]; rate 100 g/ha): 35% | Observed plant damage EPHHL ([8]; rate 200 g/ha): 40%
